Measurements from patent publication US4923882A, “Novel amine derivatives, salts thereof and an anti-ulcer agent containing the same” (Toyama Chemical Co., Ltd., priority 1982, dated 1990).

Tested on: gastric acid secretion
Assay: Inhibitory effect on gastric acid secretion, perfused stomach preparation of anesthetized rat (histamine stimulated)
Assay type: in vivo, Wistar strain rats
Conditions: intravenous; for ED100: Rattus norvegicus, cumulative, histamine 30 μg/kg/min, read-out: Dose for complete inhibition; for Duration: time from complete inhibition until pH of perfusate became 4
Method: (i) Perfused stomach preparation of anesthetized rat [according to M. N. Ghosh and H. O. Schild: Brit. J. Pharmacol. 13, 54 (1958)]
Wistar strain rats (male, 200 to 250 g) starved for 18 hours were anesthetized with urethane and then subjected to laparotomy, after which the forestomach region of the stomach of each rat was incised. The whole interior of the stomach was sufficiently washed with physiological saline, and the cut edges were sutured. A silicon tube was inserted into the stomach to a length of about 5 mm from the duodenum side and fixed. Subsequently, the stomach was perfused with physiological saline adjusted to a pH of about 10 with an aqueous sodium hydroxide solution at a constant rate (1 ml/min) through an oral sonde, and the change in pH of the perfusate which had flowed out through the silicone tube was continuously recorded. During the perfusion, histamine (30 μg/kg/min) was continuously injected, as an agent for stimulating gastric acid secretion, through the femoral vein at a rate of 0.3 ml/min. Each drug was intravenously administered when the acid secretion became almost constant (pH 3.3±0.2), and cumulatively administered when the inhibition of acid secretion at each dose reached a plateau.
The number of experiments was three for each dose.

Row | SMILES | ED100 [mg/kg] | Duration [min]
1 | COc1cccc(C(O)CNC(=C[N+](=O)[O-])NCCSCc2ccc(CN(C)C)o2)c1 (centres unmarked) [compound 23, N-{2-[[5-(dimethylamino)methyl-2-furyl]methylthio]ethyl}-N'-[2-hydroxy-2-(3-methoxyphenyl)ethyl]-2-nitro-1,1-ethenediamine] | 0.15 | 242
2 | CCc1cccc(C(O)CNC(=C[N+](=O)[O-])NCCSCc2cc(C)c(CN(C)C)s2)c1 (centres unmarked) [compound 31, N-{2-[[5-(dimethylamino)methyl-4-methyl-2-thienyl]methylthio]ethyl}-N'-[2-(3-ethylphenyl)-2-hydroxyethyl]-2-nitro-1,1-ethenediamine] | 0.3 | 226
3 | O=[N+]([O-])C=C(NCCCOc1cccc(CN2CCCCC2)c1)NCC(O)c1ccc([N+](=O)[O-])cc1 (centres unmarked) [compound 20, N-[2-hydroxy-2-(4-nitrophenyl)ethyl]-2-nitro-N'-[3-(3-piperidinomethylphenoxy)propyl]-1,1-ethenediamine] | – | > 210
4 | CS(=O)(=O)NC(=NCCCOc1cccc(CN2CCCCC2)c1)NCC(O)c1ccccc1 (stereo not drawn) [compound 21, N-(β-hydroxyphenethyl)-N'-methanesulfonyl-N"-[3-(3-piperidinomethylphenoxy)propyl]guanidine] | 0.1 | > 240
5 | Cc1cc(CSCCNC(=C[N+](=O)[O-])NCC(O)c2ccc(O)cc2)sc1CN(C)C (centres unmarked) [compound 10, N-{2-[[5-(dimethylamino)methyl-4-methyl-2-thienyl]methylthio]ethyl}-N'-[2-hydroxy-2-(4-hydroxyphenyl)ethyl]-2-nitro-1,1-ethenediamine] | 0.18 | 175
6 | CN(C)Cc1ccc(CSCCNC(=C[N+](=O)[O-])NC[C@@H](O)c2ccc(O)cc2)o1 [compound 22, N-{2-[[5-(dimethylamino)methyl-2-furyl]methylthio]ethyl}-N'-[S(+)-2-hydroxy-2-(4-hydroxyphenyl)ethyl]-2-nitro-1,1-ethenediamine] | 0.04 | 136
7 | CSc1ccc(C(O)CNC(=C[N+](=O)[O-])NCCSCc2ccc(CN(C)C)o2)cc1 (centres unmarked) [compound 24, N-{2-[[5-(dimethylamino)methyl-2-furyl]methylthio]ethyl}-N'-[2-hydroxy-2-(4-methylthiophenyl)ethyl]-2-nitro-1,1-ethenediamine] | 0.2 | > 240
8 | CN(C)Cc1ccc(CSCCNC(=C[N+](=O)[O-])NCC(O)c2ccc(F)c(F)c2)o1 (centres unmarked) [compound 25, N-{2-[[5-(dimethylamino)methyl-2-furyl]methylthio]ethyl}-N'-[2-(3,4-difluorophenyl)-2-hydroxyethyl]-2-nitro-1,1-ethenediamine] | 0.1 | > 240
9 | O=[N+]([O-])C=C(NCCCOc1cccc(CN2CCCCC2)c1)NCC(O)c1cccc(C(F)(F)F)c1 (centres unmarked) [compound 27, N-[2-hydroxy-2-(3-trifluoromethylphenyl)ethyl]-2-nitro-N'-[3-(3-piperidinomethylphenoxy)propyl]-1,1-ethenediamine] | 0.3 | > 210
10 | O=[N+]([O-])C=C(NCCCOc1cccc(CN2CCCCC2)c1)NCC(O)c1cccnc1 (centres unmarked) [compound 19, N-[2-hydroxy-2-(3-pyridyl)ethyl]-2-nitro-N'-[3-(3-piperidinomethylphenoxy)propyl]-1,1-ethenediamine] | 0.1 | 164
11 | N#CNC(=NCC(O)c1ccccc1)NCCSCc1csc(NC(=N)N)n1 (stereo not drawn) [compound 1, N-cyano-N'-{2-[(2-guanidino-4-thiazolyl)methylthio]ethyl}-N"-(β-hydroxyphenethyl)guanidine] | 0.3 | > 210
12 | CSc1ccc(C(O)CNC(=C[N+](=O)[O-])NCCCOc2cccc(CN3CCCCC3)c2)cc1 (centres unmarked) [compound 26, N-[2-hydroxy-2-(4-methylthiophenyl)ethyl]-2-nitro-N'-[3-(3-piperidinomethylphenoxy)propyl]-1,1-ethenediamine] | 0.3 | > 240
